CC(C)(C)C(=O)C(Oc1ccc(Cl)cc1)n1ccnc1 (stereo not drawn)
solubility (mole fraction)
Conditions | in acetone | in acetonitrile | in ethanol | in ethyl acetate | in isobutanol | in methanol | in methyl acetate | in n-butanol | in n-butyl acetate
288.15 K | 0.147 | 0.0724 | 0.112 | 0.0909 | 0.098 | 0.161 | 0.0955 | 0.111 | 0.088
293.15 K | 0.164 | 0.083 | 0.132 | 0.105 | 0.112 | 0.181 | 0.109 | 0.131 | 0.0994
298.15 K | 0.185 | 0.103 | 0.157 | 0.126 | 0.137 | 0.204 | 0.129 | 0.152 | 0.115
303.15 K | 0.207 | 0.129 | 0.185 | 0.151 | 0.161 | 0.226 | 0.156 | 0.181 | 0.142
308.15 K | 0.235 | 0.158 | 0.211 | 0.172 | 0.192 | 0.255 | 0.179 | 0.205 | 0.163
313.15 K | 0.259 | 0.19 | 0.25 | 0.202 | 0.22 | 0.28 | 0.214 | 0.245 | 0.192
318.15 K | 0.301 | 0.222 | 0.288 | 0.239 | 0.26 | 0.318 | 0.251 | 0.283 | 0.227
